Test results from a melting point compilation (Tetko et al.; mined from patent text by program, amines drawn as free bases though some values may be those of a salt).
Residues, ends and D or L forms follow the SMILES beside them. *: point of attachment. Boc = CC(C)(C)OC(=O)*; Bn = c1ccc(C*)cc1

melting point | Structure (SMILES)
110 °C | Cc1cccc(C(=O)O)c1N(C)S(=O)(=O)c1ccc(OCCCCNC(=O)c2ccc3c(c2)OCO3)cc1
57 to 58 °C | Cc1ccccc1COC1(C)COC(CCl)OC1 (stereo not drawn)
279 to 283 °C | N#Cc1ccc2ccc(C(=O)O)cc2c1
268 to 269 °C | Cc1c(N2CCC(n3cccc3)CC2)c(F)cn2c(=O)c(C(=O)O)cc(C3CC3)c12
114 to 119 °C | COc1cc(C=CCN2CCc3nc(N)sc3CC2)cc(OC)c1
198 °C | CSC1(C)C(=O)N(C(C)=O)c2ccc(C3=NNC(=O)SC3)cc21 (stereo not drawn)
182 to 183 °C | CC(C)Cn1c(CN2C(=O)c3ccccc3C2=O)c(-c2ccc(Cl)cc2)c2cc(OCc3ccccc3)ccc2c1=O
89 to 91 °C | C=Cc1ccc2c(c1)CC(NC(=O)OC(C)(C)C)CC2 (stereo not drawn)
245 to 246 °C | Oc1cc(Nc2nnc(Cc3ccncc3)c3ccccc23)ccc1Cl
49 to 53 °C | CCCCCCCCCCCCCCOc1ccc(O)c(C(=O)OC)c1
318 to 320 °C | NS(=O)(=O)c1cccc(NC(=O)c2cnn3ccc(-c4ccc(C(F)(F)F)cc4)nc23)c1
120 to 126 °C | O=C(O)c1ccccc1Nc1ccc(CCCc2ccc(Cl)c(Cl)c2)cc1
123 to 125 °C | CC(C)(C)OC(=O)NC1COCCCC=CC2CC2(C(=O)NS(=O)(=O)C2CC2)NC(=O)C2CC(OC(=O)c3cccc(Oc4ccccc4)c3)CN2C1=O (stereo not drawn)
148 °C | CN(C)S(=O)(=O)c1cc(-c2csc(=Nc3ccccc3)n2C2CCCCC2)ccc1Cl
89 to 91 °C | COC(=O)c1ccc2c(c1)C(=O)C1(CC1)O2
110 to 112 °C | CCOC(=O)c1c(C)nc(S)c(N)c1NCCCN(C)C
116 to 118 °C | CC(=O)c1ccc(Oc2ccc(S(=O)(=O)C3CCCCC3)cn2)cc1
246 to 248 °C | Cc1nc2c(C(=O)NC(C)(C(N)=O)C(C)C)cc(C(=O)O)cc2n1C (stereo not drawn)
255 to 257 °C | COc1ccc(NC(=O)NCc2ccc3c(c2)CN(C2CCC(=O)NC2=O)C3=O)cc1 (stereo not drawn)
263 to 264 °C | O=C(O)C1=Cc2cc(-c3ccc(Cl)cc3)ccc2OCC1
96 to 99 °C | CC(=O)OCCN1CCN(CC#CC2=Cc3ccccc3Sc3ccc(Cl)cc32)CC1
221 to 222 °C | CS(=O)(=O)Nc1ccccc1C(=O)Nc1ccc(OCCN2CCCC2)cc1
162 °C | CC1(C)Oc2ccc(C(N)=O)cc2[C@H](NCCc2ccccc2)[C@H]1O (relative stereo)

melting point | Structure (SMILES)
112 °C | N#Cc1ccc(Oc2ccccc2Oc2ccc(C#N)cc2)cc1
160 to 163 °C | Cc1nc(C)c(Cl)c(NCc2nccc(SCCOCCn3c([N+](=O)[O-])cnc3C)c2C)n1
208 to 209 °C | COc1ccc2cnc(Nc3ccc(F)c(C)c3)nc2c1C1CCCC1
186 to 190 °C | Cc1ccc2c(O)cc(=O)oc2c1C
30 to 32 °C | COCc1oc(C)cc(=O)c1OCc1ccccc1
193 to 196 °C | Fc1ccccc1-c1cnc2nncn2n1
> 250 °C | COc1cc(C#N)ccc1C(=O)Nc1cc(Cl)c(Cl)cc1N
218 to 220 °C | OCCn1ccc2ncnc(Nc3ccc(Oc4cccc5sncc45)c(Cl)c3)c21
165 °C | Cn1c(CC(=O)O)ccc1C(=O)c1cccc(Cl)c1
137 to 138 °C | CCOC(=O)c1nc2ccccc2n(CCO)c1=O
103 to 104 °C | O=C1OCCN1CCn1ccnc1[N+](=O)[O-]
118 to 122 °C | COc1ccc2c(c1)CCC(N(CC(=O)O)C(=O)C(C)CSC(C)=O)C2 (stereo not drawn)
240 to 242 °C | CC1COCc2nc3c(N)nc4ccc(OCc5cscn5)cc4c3n21 (stereo not drawn)
126 to 128 °C | COCCOc1ccc(/C=C/C(=O)NS(=O)(=O)C(F)(F)F)c(Oc2ncc(C(F)(F)F)cc2Cl)c1
116 to 118 °C | CCCC(C(N)=O)n1cc(C)c(-c2ccccc2)n1 (stereo not drawn)
76 to 77 °C | CCCc1oc(-c2ccccc2)nc1COc1ccc(C=O)cc1
170 to 171 °C | O=C(CCSC(=O)c1ccccc1)N[C@@H](Cc1c[nH]cn1)C(=O)O
323 to 324 °C | CC(C)n1c(=O)[nH]c2ncc(-c3ccc(O)cc3)nc21
171 to 172 °C | O=C(O)C=CC(=O)NNC(=O)N1Cc2ccccc2Oc2ccc(Cl)cc21
202 to 203 °C | O=C(NCc1ccc(F)cc1)Nc1ccc(CN2C(=O)[C@H]3CCC[C@H]3N(C(=O)CCl)c3ccccc32)cc1 (relative stereo)
> 300 °C | N#Cc1cc2[nH]c(=O)c(=O)n(C3CCCCC3)c2c2ccccc12
283 °C | COc1ccccc1-c1nc2cc(NC(=O)c3c(C(=O)O)cnn3C)ccn2n1
105 to 106 °C | CCOC(=O)NN1CCN(CCCCC(=O)c2ccccc2)CC1

melting point | Structure (SMILES)
137 °C | COc1ccc(C(=O)/C=C/c2ccc3c(c2)OCO3)c(OC)c1
234 to 236 °C | Nc1c(F)c(N2CCCCCC2)c(F)c2c1c(=O)c(C(=O)O)cn2C1CC1
43.5 to 45.2 °C | O=C(Oc1cccc(F)c1)c1ccc(F)cc1
95 to 100 °C | N#Cc1c(OC(F)(F)Br)ncnc1N1CCc2ccccc2CC1
55 to 56 °C | CCOc1c(Br)cc(C(C)(C)C)cc1C(C)(C)C
235 to 236 °C | N#Cc1cccc(Nc2nc(N)c(C(=O)c3ccccc3C#N)s2)c1
150 to 160 °C | CC(C)(C)c1cc(CCC(=O)NCCNc2c(Cl)nc(Cl)c(Cl)c2C#N)cc(C(C)(C)C)c1O
137 to 139 °C | Cc1cccc(N2CCOC2=O)c1CNc1cccn2c(Cl)c(C)nc12
> 300 °C | CCNc1ccc2c(c1)CN(c1c(F)cc3c(=O)c(C(=O)O)cn4c3c1OCC4C)C2 (stereo not drawn)
77 to 82 °C | COC(=O)CCCCCCNC(=O)C(COS(C)(=O)=O)NS(=O)(=O)c1ccc(Cl)cc1 (racemic)
108 to 110 °C | CC(C)(C)NC(=O)c1ccccc1NS(=O)(=O)C(F)(F)F
124 to 125 °C | CCn1c(COC(=O)NC(=O)c2cc(Cl)cc(Cl)c2)nc(C(C)C)c1Sc1cc(Cl)cc(Cl)c1
115 to 117 °C | COC(c1ccccc1)c1cc(C(F)(F)F)nc2c(C(F)(F)F)cccc12 (stereo not drawn)
> 250 °C | Cc1cc(C)c2c3c([nH]c2c1)C(=O)N=NC3=O
197 °C | C=CCN1C(C)(C)CC(OC(=O)CCC(C)(c2ccc(O)c(C(C)(C)C)c2)c2ccc(O)c(C(C)(C)C)c2)CC1(C)C
232 to 235 °C | CCCCn1nc2c(N)nc3ncccc3c2c1CC(C)(C)O
155 to 156 °C | CC(C)(C)c1ccc(CCC(=O)C2CCCCCC2)cc1NC(=O)CC1c2ccccc2Oc2ccccc21
135 to 137 °C | c1ccc(-c2ccc(-c3nc4n(n3)CCCc3ccccc3-4)cc2)cc1
224 °C | CC(C)(C)OC(=O)N1CCC(OCc2ccccc2)C1CC(O)Cn1cnc2cccc(C(F)(F)F)c2c1=O (stereo not drawn)
80 to 82 °C | COC(=O)c1cc(N)cc(N)c1SCc1ccccc1
105 to 107 °C | CCCCCN1C(=O)C2(COc3cc4nc(C)sc4cc32)c2ccccc21 (stereo not drawn)
203 to 205 °C | Cn1cccc1C(=O)c1[nH]c2ccc(Cl)cc2c1CC(=O)O
300 °C | CC(=O)N1CCc2c(sc3nc(CN4C(=O)CCC4=O)c(Cl)c(-c4ccc(O)cc4)c23)C1

melting point | Structure (SMILES)
130 to 131 °C | COC(=O)C(Cc1ccc(OCc2ccccc2)cc1)NC(=O)C(COCc1ccccc1)NC(=O)C(Cc1c[nH]c2ccccc12)NC(=O)OC(C)(C)C (stereo not drawn) (Boc-Trp-Ser(Bn)-Tyr(Bn)-OMe; configuration not given here)
> 160 °C | NC(Cc1cc(Cl)ccc1CCP(=O)(O)O)C(=O)O (stereo not drawn)
222 °C | ClC(Cl)=C1OC(C(Cl)(Cl)Cl)Oc2ccc(-c3nnn[nH]3)cc21 (stereo not drawn)
155 to 156 °C | CC(C)C[C@@H](CC(=O)O)NC(=O)[C@@H](CS)C(F)(F)F
65.1 °C | C=C1c2ccccc2CCc2ccccc21
178 to 179 °C | O=c1oc(-c2ccc(OCc3cccnc3)cc2)cc(O)c1SCCc1ccccc1
308 to 310 °C | COc1ccc(OC)c(N2Cc3[nH]c(=O)[nH]c(=O)c3C2)c1
198 °C | CCOc1ccccc1C1(Cl)C(=O)Nc2ccc(Cl)cc21 (stereo not drawn)
86.5 to 88 °C | FC(F)Oc1ccc(CN(C(=Nc2ccccc2)N(Cc2ccc(OC(F)F)cc2)C2CCCC2)C2CCCC2)cc1
125 to 126 °C | O=C(NC(=O)N(SN1CCCC1=O)c1ccc(Oc2ccc(C(F)(F)F)cc2Cl)cc1F)c1c(F)cccc1F
156 to 160 °C | O=C1c2ccccc2N(c2ccccc2)CN1O
181 to 183 °C | O=C1CC[C@@H](C(=O)N[C@@H](CSCc2ccccc2)C(=O)O)N1
184 to 185 °C | CCOC(=O)c1c(Cn2cncn2)nc2sc3c(c2c1-c1cccc(OC)c1OC)CCCN3C(=O)OCc1ccccc1
211 to 217 °C | COc1ccc(/C=C/C(=O)Nc2ccccc2C(=O)O)cc1OC1CCCC1
214 to 216 °C | Cc1c(N2CC3CN(Cc4ccccc4)CC3C2)nn2c(-c3ccnc(NC(=O)OC(C)(C)C)c3)c(-c3ccc(F)cc3)nc2c1C (stereo not drawn)
272 to 274 °C | CCC1(C)CC2(NC(=O)N(Cc3ccc(CN4C(=O)NC5(CC(C)(CC)NC(C)(CC)C5C)C4=O)cc3)C2=O)C(C)C(C)(CC)N1 (stereo not drawn)
144 to 146 °C | C[C@@H]1Oc2ccccc2C(=O)[C@H]1n1ccnc1 (relative stereo)
131 to 132 °C | CC(C)(C)c1cc(N(C(=O)CCC(=O)O)c2ccc(OC(=O)c3ccccc3)cc2)cc(C(C)(C)C)c1O
185 °C | O=[N+]([O-])c1cnc2ccc(Oc3ccc(CNc4ncncc4Cl)cc3)nn12
198 to 200 °C | CCOC(=O)c1cccc2c1Cc1c-2[nH]c2ccc(Br)cc12

Structure (SMILES) | melting point
C=CCN1C2CCC1C1CCC2N1C(c1ccc(C(=O)N(C)C)cc1)c1cccc(O)c1 (stereo not drawn) | 99 to 101 °C
CC(=O)OCC(=O)CS(=O)(=O)C(c1ccc(Cl)cc1)c1ccc(Cl)cc1 | 57 to 60 °C
CCc1cc(OC)c(C=C(C)[N+](=O)[O-])cc1OC | 63 to 64 °C
Cc1ccc(S(=O)(=O)NC(=O)N2CC2C#N)cc1 (stereo not drawn) | 156 to 158 °C
